How the values were obtained:
[1] = target: Serine/threonine-protein kinase pim-1 (Homo sapiens) (UniProt P11309); assay: Inhibition of human PIM1 assessed as residual activity at 10 uM using KKRNRTLTK as substrate preincubated for 20 mins followed by [gamma-33P]-ATP addition and measured after 120 mins by Hotspot assay relative to control
[2] = target: Mast/stem cell growth factor receptor Kit (Homo sapiens, UniProt P10721); assay: Binding affinity to wild-type human partial length autoinhibited KIT (Y545 to D952 residues) expressed in mammalian expression system after 60 mins by Kinomescan method
[3] = target: Tyrosine-protein kinase ABL1 (Homo sapiens, UniProt P00519, T315I); assay: Binding affinity to human non-phosphorylated ABL1 T315I mutant (S229 to K512 residues) expressed in mammalian expression system after 60 mins by Kinomescan method
[4] = tested on: MV4-11; assay: Cell cycle arrest in human MV4-11 cells assessed as accumulation at G2/M phase after 24 hrs by ribonuclease/propidium iodide staining based flow cytometric analysis; type: functional
[5] = target: Tyrosine-protein kinase BTK (Homo sapiens, UniProt Q06187); assay: Inhibition of human BTK using KVEKIGEGTYGVVYK as substrate preincubated for 20 mins followed by [gamma-33P]-ATP addition and measured after 120 mins by Hotspot assay
Chain of Tyrosine-protein kinase BTK (Q06187 whole entry): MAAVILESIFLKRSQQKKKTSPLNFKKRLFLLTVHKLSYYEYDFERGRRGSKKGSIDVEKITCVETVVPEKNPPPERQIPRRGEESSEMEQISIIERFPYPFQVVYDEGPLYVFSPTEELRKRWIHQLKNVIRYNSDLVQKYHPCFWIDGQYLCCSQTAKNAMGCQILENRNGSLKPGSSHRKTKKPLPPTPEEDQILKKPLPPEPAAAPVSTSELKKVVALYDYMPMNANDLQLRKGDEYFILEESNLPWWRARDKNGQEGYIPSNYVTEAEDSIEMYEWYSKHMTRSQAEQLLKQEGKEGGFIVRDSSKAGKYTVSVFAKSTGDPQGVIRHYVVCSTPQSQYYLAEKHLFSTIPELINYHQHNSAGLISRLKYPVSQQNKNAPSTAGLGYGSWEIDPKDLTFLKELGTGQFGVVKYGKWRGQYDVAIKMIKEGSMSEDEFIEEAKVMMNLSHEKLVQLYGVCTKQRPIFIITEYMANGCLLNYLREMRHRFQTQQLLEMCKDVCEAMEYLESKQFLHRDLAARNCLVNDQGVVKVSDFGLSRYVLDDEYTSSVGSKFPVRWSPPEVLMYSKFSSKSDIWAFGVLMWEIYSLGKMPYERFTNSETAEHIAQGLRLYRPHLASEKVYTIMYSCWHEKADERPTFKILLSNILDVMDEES

[6] = tested on: MV4-11; assay: Induction of apoptosis in human MV4-11 cells assessed as necrotic cells at 0.1 uM after 24 hrs by Annexin V-FITC/propidium iodide staining based flow cytometric analysis (reference value: 0%); type: functional
[7] = target: Serine/threonine-protein kinase Nek2 (Homo sapiens) (UniProt P51955); assay: Inhibition of human NEK2 assessed as residual activity at 10 uM using MBP as substrate preincubated for 20 mins followed by [gamma-33P]-ATP addition and measured after 120 mins by Hotspot assay relative to control
[8] = target: Vascular endothelial growth factor receptor 2 (Homo sapiens, UniProt P35968); assay: Inhibition of human KDR assessed as residual activity at 10 uM using poly[Glu:Tyr] (4:1) as substrate preincubated for 20 mins followed by [gamma-33P]-ATP addition and measured after 120 mins by Hotspot assay relative to control
Chain of Vascular endothelial growth factor receptor 2 (P35968 whole entry): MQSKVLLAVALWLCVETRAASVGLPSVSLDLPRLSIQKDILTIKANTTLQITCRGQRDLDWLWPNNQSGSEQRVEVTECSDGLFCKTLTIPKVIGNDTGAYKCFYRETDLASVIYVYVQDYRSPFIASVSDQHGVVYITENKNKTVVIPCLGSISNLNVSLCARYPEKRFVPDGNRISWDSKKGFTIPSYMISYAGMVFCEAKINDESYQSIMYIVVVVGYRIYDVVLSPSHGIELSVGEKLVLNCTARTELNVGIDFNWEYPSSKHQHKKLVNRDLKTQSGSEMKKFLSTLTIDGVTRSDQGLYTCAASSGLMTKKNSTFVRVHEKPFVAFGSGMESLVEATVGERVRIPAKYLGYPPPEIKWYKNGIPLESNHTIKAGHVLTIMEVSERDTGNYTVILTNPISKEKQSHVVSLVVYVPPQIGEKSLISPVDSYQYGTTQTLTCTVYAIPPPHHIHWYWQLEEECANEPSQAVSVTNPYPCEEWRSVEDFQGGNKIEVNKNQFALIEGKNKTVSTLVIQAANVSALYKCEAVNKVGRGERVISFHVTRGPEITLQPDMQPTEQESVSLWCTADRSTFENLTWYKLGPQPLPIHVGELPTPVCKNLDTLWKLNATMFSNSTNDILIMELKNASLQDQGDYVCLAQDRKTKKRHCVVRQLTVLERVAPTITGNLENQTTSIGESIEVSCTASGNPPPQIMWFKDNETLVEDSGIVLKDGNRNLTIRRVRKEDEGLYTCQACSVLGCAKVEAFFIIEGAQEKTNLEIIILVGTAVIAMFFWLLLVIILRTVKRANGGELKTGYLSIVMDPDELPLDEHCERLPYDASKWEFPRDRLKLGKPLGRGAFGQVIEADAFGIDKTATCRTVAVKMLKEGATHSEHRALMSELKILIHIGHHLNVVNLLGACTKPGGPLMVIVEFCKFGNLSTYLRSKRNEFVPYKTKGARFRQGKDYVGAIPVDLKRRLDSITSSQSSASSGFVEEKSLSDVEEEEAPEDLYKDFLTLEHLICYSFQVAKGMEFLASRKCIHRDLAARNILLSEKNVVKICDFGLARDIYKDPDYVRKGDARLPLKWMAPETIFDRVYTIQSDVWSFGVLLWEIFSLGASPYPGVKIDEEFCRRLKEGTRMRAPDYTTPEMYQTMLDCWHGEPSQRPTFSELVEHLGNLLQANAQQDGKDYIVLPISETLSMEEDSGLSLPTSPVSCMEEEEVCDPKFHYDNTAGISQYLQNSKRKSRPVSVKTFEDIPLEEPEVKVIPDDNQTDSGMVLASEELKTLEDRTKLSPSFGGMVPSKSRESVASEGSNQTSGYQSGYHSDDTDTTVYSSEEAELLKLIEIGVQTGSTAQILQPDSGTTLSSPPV

[9] = tested on: MOLM-13; assay: Growth inhibition of human MOLM13 cells harboring FLT3 ITD mutant at 10 uM after 72 hrs by CellTiter-Glo assay relative to control; type: functional; details: MOLM-13, 72 h, read-out: GI
[10] = tested on: MV4-11; assay: Induction of apoptosis in human MV4-11 cells assessed as early apoptotic cells at 0.02 uM after 24 hrs by Annexin V-FITC/propidium iodide staining based flow cytometric analysis (reference value: 3.39%); type: functional
[11] = target: Serine/threonine-protein kinase Chk1 (Homo sapiens) (UniProt O14757); assay: Inhibition of human CHK1 assessed as residual activity at 10 uM using KKKVSRSGLYRSPSMPENLNRPR as substrate preincubated for 20 mins followed by [gamma-33P]-ATP addition and measured after 120 mins by Hotspot assay relative to control
Chain of Serine/threonine-protein kinase Chk1 (Homo sapiens) (O14757 whole entry): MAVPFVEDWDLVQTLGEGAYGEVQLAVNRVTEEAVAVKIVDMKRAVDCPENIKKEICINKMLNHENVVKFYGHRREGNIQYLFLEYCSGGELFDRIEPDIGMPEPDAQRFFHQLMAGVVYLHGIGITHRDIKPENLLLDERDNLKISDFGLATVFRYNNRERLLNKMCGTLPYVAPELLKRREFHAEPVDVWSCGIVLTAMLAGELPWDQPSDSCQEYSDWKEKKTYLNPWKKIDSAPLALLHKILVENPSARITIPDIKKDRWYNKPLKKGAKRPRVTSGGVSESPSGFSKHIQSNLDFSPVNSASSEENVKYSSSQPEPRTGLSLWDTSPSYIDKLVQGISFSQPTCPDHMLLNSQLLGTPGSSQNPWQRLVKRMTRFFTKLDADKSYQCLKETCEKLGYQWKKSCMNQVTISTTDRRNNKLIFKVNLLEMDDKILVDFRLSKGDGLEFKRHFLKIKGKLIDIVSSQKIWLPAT

[12] = target: Proto-oncogene tyrosine-protein kinase Src (Homo sapiens, UniProt P12931); assay: Inhibition of human c-SRC assessed as residual activity at 10 uM using poly[Glu:Tyr] (4:1) as substrate preincubated for 20 mins followed by [gamma-33P]-ATP addition and measured after 120 mins by Hotspot assay relative to control
Chain of Proto-oncogene tyrosine-protein kinase Src (P12931 2-536 limits assumed): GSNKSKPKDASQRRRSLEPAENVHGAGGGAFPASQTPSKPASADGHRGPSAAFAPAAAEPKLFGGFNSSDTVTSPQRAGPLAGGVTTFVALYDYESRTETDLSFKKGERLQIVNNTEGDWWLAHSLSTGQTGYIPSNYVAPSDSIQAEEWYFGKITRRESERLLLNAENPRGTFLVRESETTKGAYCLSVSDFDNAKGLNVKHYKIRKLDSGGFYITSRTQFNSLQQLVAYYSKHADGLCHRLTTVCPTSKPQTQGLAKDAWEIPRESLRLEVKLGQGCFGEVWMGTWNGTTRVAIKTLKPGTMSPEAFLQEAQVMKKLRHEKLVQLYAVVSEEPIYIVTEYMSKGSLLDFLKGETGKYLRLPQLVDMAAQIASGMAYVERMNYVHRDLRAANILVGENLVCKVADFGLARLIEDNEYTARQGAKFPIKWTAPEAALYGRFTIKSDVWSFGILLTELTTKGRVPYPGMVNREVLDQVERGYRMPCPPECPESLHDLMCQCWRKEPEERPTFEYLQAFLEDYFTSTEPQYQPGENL

[13] = target: T1, Tyrosine-protein kinase ABL1 (Homo sapiens, UniProt P00519, H396P); assay: Binding affinity to human phosphorylated ABL1 H396P mutant (S229 to K512 residues) expressed in mammalian expression system after 60 mins by Kinomescan method
[14] = tested on: MV4-11; assay: Induction of apoptosis in human MV4-11 cells assessed as necrotic cells at 0.05 uM after 24 hrs by Annexin V-FITC/propidium iodide staining based flow cytometric analysis (reference value: 0%); type: functional
[15] = target: Tyrosine-protein kinase Lck (Homo sapiens, UniProt P06239); assay: Inhibition of human LCK using poly[Glu:Tyr] (4:1) as substrate preincubated for 20 mins followed by [gamma-33P]-ATP addition and measured after 120 mins by Hotspot assay
Chain of Tyrosine-protein kinase Lck (P06239 whole entry): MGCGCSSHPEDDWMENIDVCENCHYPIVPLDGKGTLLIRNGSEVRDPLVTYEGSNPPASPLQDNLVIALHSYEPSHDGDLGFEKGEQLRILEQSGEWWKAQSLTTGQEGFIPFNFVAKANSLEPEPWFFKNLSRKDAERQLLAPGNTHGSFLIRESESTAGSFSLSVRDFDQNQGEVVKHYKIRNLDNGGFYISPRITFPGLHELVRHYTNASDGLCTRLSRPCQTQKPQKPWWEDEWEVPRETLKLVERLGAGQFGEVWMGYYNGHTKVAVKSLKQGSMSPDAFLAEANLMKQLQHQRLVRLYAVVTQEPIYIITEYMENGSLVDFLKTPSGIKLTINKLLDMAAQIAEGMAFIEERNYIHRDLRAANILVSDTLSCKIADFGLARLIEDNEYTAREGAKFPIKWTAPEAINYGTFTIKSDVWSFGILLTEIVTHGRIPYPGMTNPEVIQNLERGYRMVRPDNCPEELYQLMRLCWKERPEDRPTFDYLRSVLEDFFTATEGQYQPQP

[16] = tested on: MV4-11; assay: Induction of apoptosis in human MV4-11 cells assessed as viable cells at 0.1 uM after 24 hrs by Annexin V-FITC/propidium iodide staining based flow cytometric analysis (reference value: 95.19%); type: functional; details: MV4-11, 24 h, read-out: Activity
[17] = tested on: MV4-11; assay: Induction of apoptosis in human MV4-11 cells assessed as necrotic cells at 1 uM after 24 hrs by Annexin V-FITC/propidium iodide staining based flow cytometric analysis (reference value: 0%); type: functional
[18] = target: T1, Tyrosine-protein kinase ABL1; assay: Binding affinity to human non-phosphorylated ABL1 H396P mutant (S229 to K512 residues) expressed in mammalian expression system after 60 mins by Kinomescan method
[19] = target: Tyrosine-protein kinase ABL1 (Homo sapiens, UniProt P00519, F317L); assay: Binding affinity to human non-phosphorylated ABL1 F317L mutant (S229 to K512 residues) expressed in mammalian expression system after 60 mins by Kinomescan method
[20] = target: Macrophage colony-stimulating factor 1 receptor (Homo sapiens, UniProt P07333); assay: Inhibition of human FMS assessed as residual activity at 10 uM using poly[Glu:Tyr] (4:1) as substrate preincubated for 20 mins followed by [gamma-33P]-ATP addition and measured after 120 mins by Hotspot assay relative to control
Chain of Macrophage colony-stimulating factor 1 receptor (P07333 whole entry): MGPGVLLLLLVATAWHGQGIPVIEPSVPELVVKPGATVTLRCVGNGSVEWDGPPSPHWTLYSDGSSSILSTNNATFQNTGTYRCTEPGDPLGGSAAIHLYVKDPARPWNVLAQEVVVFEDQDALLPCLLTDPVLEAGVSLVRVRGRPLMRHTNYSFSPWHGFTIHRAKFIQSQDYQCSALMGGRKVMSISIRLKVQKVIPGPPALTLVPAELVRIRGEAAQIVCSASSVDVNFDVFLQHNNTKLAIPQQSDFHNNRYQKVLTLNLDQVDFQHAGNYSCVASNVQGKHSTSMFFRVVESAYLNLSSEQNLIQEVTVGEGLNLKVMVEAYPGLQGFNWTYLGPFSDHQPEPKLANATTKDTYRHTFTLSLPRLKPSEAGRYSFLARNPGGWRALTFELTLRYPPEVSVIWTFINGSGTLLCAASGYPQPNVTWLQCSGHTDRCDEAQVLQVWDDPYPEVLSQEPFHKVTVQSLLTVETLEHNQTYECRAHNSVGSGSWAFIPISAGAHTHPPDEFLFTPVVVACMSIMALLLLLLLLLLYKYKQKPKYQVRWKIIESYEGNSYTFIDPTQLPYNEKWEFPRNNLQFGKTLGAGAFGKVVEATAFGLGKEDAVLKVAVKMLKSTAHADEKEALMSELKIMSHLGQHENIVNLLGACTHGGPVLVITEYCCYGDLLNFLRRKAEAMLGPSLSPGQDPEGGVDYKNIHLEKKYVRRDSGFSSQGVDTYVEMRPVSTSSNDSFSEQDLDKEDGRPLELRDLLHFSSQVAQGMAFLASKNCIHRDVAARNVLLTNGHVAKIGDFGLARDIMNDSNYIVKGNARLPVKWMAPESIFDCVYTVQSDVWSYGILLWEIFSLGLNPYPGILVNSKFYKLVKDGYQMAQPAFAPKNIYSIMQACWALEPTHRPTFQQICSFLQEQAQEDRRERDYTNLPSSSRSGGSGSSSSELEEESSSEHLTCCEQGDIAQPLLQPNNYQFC

[21] = tested on: PBMC; assay: Cytotoxicity against human PBMC at 1 uM after 72 hrs by MTT assay; type: cell-based
[22] = target: Dual specificity mitogen-activated protein kinase kinase 1 (Homo sapiens) (UniProt Q02750); assay: Inhibition of human MEK1 assessed as residual activity at 10 uM using ERK2 as substrate preincubated for 20 mins followed by [gamma-33P]-ATP addition and measured after 120 mins by Hotspot assay relative to control
[23] = tested on: MV4-11; assay: Induction of apoptosis in human MV4-11 cells after 24 hrs by Annexin V-FITC/propidium iodide staining based flow cytometric analysis; type: functional, cell-based
[24] = tested on: RS4-11; assay: Growth inhibition of human RS4:11 cells harboring WT FLT3 at 10 uM after 72 hrs by CellTiter-Glo assay relative to control; type: functional; details: RS4-11, 72 h, read-out: GI
[25] = target: Tyrosine-protein kinase ABL1 (Homo sapiens, UniProt P00519, F317I); assay: Binding affinity to human phosphorylated ABL1 F317I mutant (S229 to K512 residues) expressed in mammalian expression system after 60 mins by Kinomescan method
[26] = tested on: MV4-11; assay: Induction of apoptosis in human MV4-11 cells assessed as late apoptotic cells at 0.02 uM after 24 hrs by Annexin V-FITC/propidium iodide staining based flow cytometric analysis (reference value: 1.42%); type: functional
[27] = target: Discoidin domain-containing receptor 2 (Homo sapiens) (UniProt Q16832); assay: Inhibition of human DDR2 assessed as residual activity at 10 uM using KKSRGDYMTMQIG as substrate preincubated for 20 mins followed by [gamma-33P]-ATP addition and measured after 120 mins by Hotspot assay relative to control

Chain of Serine/threonine-protein kinase pim-1 (Homo sapiens) (P11309 whole entry, looked up, the tested form may be a part): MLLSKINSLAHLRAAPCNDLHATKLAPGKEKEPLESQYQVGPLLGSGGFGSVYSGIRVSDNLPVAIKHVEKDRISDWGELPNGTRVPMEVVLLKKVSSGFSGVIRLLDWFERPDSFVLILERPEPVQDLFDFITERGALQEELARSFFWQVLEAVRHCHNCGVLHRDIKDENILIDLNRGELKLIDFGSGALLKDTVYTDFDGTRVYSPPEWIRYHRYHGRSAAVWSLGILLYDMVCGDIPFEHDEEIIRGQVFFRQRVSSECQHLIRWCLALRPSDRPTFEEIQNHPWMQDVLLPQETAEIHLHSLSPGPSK

CN1CCC(Nc2ccc(C(=O)Nc3cc(-c4cc(C#N)cs4)n[nH]3)cc2)CC1
Activity [1]: 5.11% | Kd [2]: 72 nM | Kd [3]: 580 nM | Activity [4]: Dose-dependent effect | IC50 ([5]; read-out: IC50): 1640 nM | IC50 ([5]; read-out: pIC50 (converted)): 1580 nM | Activity [6]: 3% | Activity [7]: 11% | Activity [8]: 34% | inhibition of growth at 10 µM [9]: 92.1% | Activity [10]: 17.09% | Activity [11]: 11.8% | Activity [12]: 17.9% | Kd [13]: 390 nM | Activity [14]: 4.51% | IC50 [15]: 1010 nM | viability at 0.1 µM [16]: 56.8% | Activity [17]: 6.35% | Kd [18]: 280 nM | Kd [19]: 6900 nM | Activity [20]: 4.66% | Activity [21]: Non-Toxic | Activity [22]: 91.9% | Activity [23]: Dose-dependent effect | inhibition of growth at 10 µM [24]: 1.33% | Kd [25]: > 10000 nM | Activity [26]: 11.3% | Activity [27]: 20.6%
